Assay results: patent publication US20220323406A1, “METHODS AND COMPOSITIONS FOR DIFFERENTIATING STEM CELLS” (Massachusetts Institute of Technology, priority 2019, published 2022)

Experiments:
Conditions in all cases: primary screen
ENR+CD organoids = test: Primary screen: ATP (CellTiter-Glo 3D, CTG) cell number/viability, 2.5-D 384-well ENR+CD organoids;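 also: compounds given at plating and again on day 3 over a 6-day differentiation from ENR+CV stem-cell-enriched precursors, ATP measured on day 6, plate median as control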
[1] = tested on: ENR+CD organoids (ISC to Paneth cell differentiation); test: Primary screen: CCh-stimulated lysozyme secretion LYZ.S, 2.5-D 384-well ENR+CD organoid differentiation; format: cell-based, mouse
Source text: (§1) High-throughput screening.

[2] = tested on: ENR+CD organoids (ISC to Paneth cell differentiation); test: Primary screen: basal (non-stimulated) lysozyme secretion LYZ.NS, 2.5-D 384-well ENR+CD organoid differentiation; format: cell-based, mouse
Source text: as §1

Row | Compound | Dose.FC.CTG (log2 fold change) (ENR+CD organoids; dose 0.08 uM) | Z.CTG (standard z score) (ENR+CD organoids; dose 0.08 uM) | Dose.FC.CTG (log2 fold change) (ENR+CD organoids; dose 0.40 uM) | Z.CTG (standard z score) (ENR+CD organoids; dose 0.40 uM) | Dose.FC.CTG (log2 fold change) (ENR+CD organoids; dose 2.00 uM) | Z.CTG (standard z score) (ENR+CD organoids; dose 2.00 uM) | Dose.FC.CTG (log2 fold change) (ENR+CD organoids; dose 10.00 uM) | Z.CTG (standard z score) (ENR+CD organoids; dose 10.00 uM) | Dose.FC.LYZ.S (log2 fold change) ([1]; dose 0.08 uM) | Dose.FC.LYZ.S (log2 fold change) ([1]; dose 0.40 uM) | Dose.FC.LYZ.S (log2 fold change) ([1]; dose 2.00 uM) | Dose.FC.LYZ.S (log2 fold change) ([1]; dose 10.00 uM) | Dose.FC.LYZ.NS (log2 fold change) ([2]; dose 0.08 uM) | Z.LYZ.NS (standard z score) ([2]; dose 0.08 uM) | Dose.FC.LYZ.NS (log2 fold change) ([2]; dose 0.40 uM) | Z.LYZ.NS (standard z score) ([2]; dose 0.40 uM) | Dose.FC.LYZ.NS (log2 fold change) ([2]; dose 2.00 uM) | Z.LYZ.NS (standard z score) ([2]; dose 2.00 uM) | Dose.FC.LYZ.NS (log2 fold change) ([2]; dose 10.00 uM) | Z.LYZ.NS (standard z score) ([2]; dose 10.00 uM)
1 | CCOC(=O)CCNc1cc(N2CCc3ccccc3CC2)nc(-c2ccccn2)n1.Cl [GSK J4 HCl] | 0.124 | 0.297 | 0.099 | 0.237 | 0.002 | 0.006 | 0.233 | 0.558 | 0.086 | 0.109 | 0.041 | −0.002 | 0.058 | 0.508 | 0.050 | 0.433 | 0.018 | 0.153 | −0.001 | −0.006
2 | Cc1cc(SCc2sc(-c3ccc(C(F)(F)F)c(F)c3)nc2C)ccc1OCC(=O)O [GW0742] | −0.751 | −1.794 | −0.489 | −1.167 | −0.249 | −0.596 | −0.451 | −1.078 | 0.048 | 0.106 | 0.014 | −0.183 | 0.052 | 0.454 | 0.045 | 0.390 | 0.026 | 0.231 | −0.152 | −1.322
3 | COc1ccc(COc2ccc(Cc3cnc(N)nc3N)cc2OC)cc1 [GW2580] | −0.042 | −0.101 | −0.284 | −0.678 | 0.029 | 0.068 | −0.038 | −0.091 | −0.013 | 0.020 | −0.060 | −0.026 | 0.006 | 0.056 | 0.014 | 0.118 | −0.060 | −0.525 | −0.018 | −0.158
4 | Cl.O=C(O)Cc1cccc(OCCCN(Cc2cccc(C(F)(F)F)c2Cl)CC(c2ccccc2)c2ccccc2)c1 [GW3965 HCl] | 0.138 | 0.330 | 0.201 | 0.481 | 0.229 | 0.546 | −0.078 | −0.186 | 0.091 | 0.074 | 0.179 | −0.047 | 0.059 | 0.516 | 0.002 | 0.013 | 0.077 | 0.673 | −0.009 | −0.080
5 | CC(C)c1onc(-c2c(Cl)cccc2Cl)c1COc1ccc(/C=C/c2cccc(C(=O)O)c2)c(Cl)c1 [GW4064] | −0.134 | −0.320 | 0.140 | 0.334 | −0.145 | −0.346 | −0.157 | −0.375 | 0.028 | 0.097 | 0.000 | −0.071 | 0.170 | 1.476 | −0.022 | −0.194 | 0.022 | 0.196 | −0.059 | −0.516
